The target of one data set is T1, PCSK9 (Homo sapiens, UniProt Q8NBP7).
T1 construct: purchased Bristol-Myers Squibb (gift, not bought); host or cells: added to CHO-K1 cells overexpressing the LDLR
As to the kind of experiment: Cell surface PCSK9 immunofluorescence on CHO-K1 cells overexpressing the LDLR. Format: cell-based. Particulars: 1 μg purified PCSK9, 4° C., 5 or 20 μg purified AnxA2. The procedure:
(§1) For immuno-cytochemistry, cells were plated on glass bottom culture dishes (MatTek) and then transfected the following day. Twenty-four hours post-transfection, the cells were washed with DMEM, incubated for an additional 20 h without serum and then washed 3 times with PBS. Cell surface labelings were made under non-permeabilizing conditions by fixation with 3.7% formaldehyde for 10 min at room temperature. Cells were then washed in PBS, incubated for 5 min in 150 mM glycine, washed once in PBS and incubated for 30 min in 1% bovine serum albumin in PBS. Cells were incubated overnight at 4° C. with primary antibodies and then washed 4× with PBS. […] After several washes in PBS, cells were covered with 5% 1,4-diazabicyclo[2.2.2]octane (Sigma) in PBS/glycerol 90% and immunofluorescence analyses were performed with a Zeiss LSM-510 confocal microscope.
Finally, addition of 1 μg of purified PCSK9 to CHO-K1 cells overexpressing the LDLR at 4° C. […] Therefore, it was deduced that because of its interaction with the CHRD AnxA2 reduces the level of cell surface PCSK9 likely bound to the LDLR. Without being bound by this hypothesis, PCSK9's reduced binding to LDLR induces a more rapid internalization of PCSK9 into the cell.

Data set [1] concerns the target T2, PCSK9-V5 (Homo sapiens, UniProt Q8NBP7). As to the kind of experiment: Hexa-His pull-down assay. Also on record: made in house; host or cells: CHO-K1 cells (conditioned medium, not purified). Particulars: 20 μg protein immobilized on cobalt chelate resin. The format is binding. The procedure: 20 μg of purified AnxA2-(His)6 or AnxA1-(His)6 or no proteins (for negative control) were immobilized onto a cobalt chelate resin (Thermo Scientific). The resin was then washed several times with 40 mM immidazole and incubated overnight at 4° C. with 800 μl of conditioned media from PCSK9-V5-transfected CHO-K1 cells containing 40 mM immidazole. The resin was then washed several times with immidazole (40 mM), heated in reducing Laemmli sample buffer and centrifuged. Supernatants were analyzed by Western blot as described above using the anti-V5-HRP or anti-His-HRP antibodies.
Target sequence in this assay (Q8NBP7 153-692): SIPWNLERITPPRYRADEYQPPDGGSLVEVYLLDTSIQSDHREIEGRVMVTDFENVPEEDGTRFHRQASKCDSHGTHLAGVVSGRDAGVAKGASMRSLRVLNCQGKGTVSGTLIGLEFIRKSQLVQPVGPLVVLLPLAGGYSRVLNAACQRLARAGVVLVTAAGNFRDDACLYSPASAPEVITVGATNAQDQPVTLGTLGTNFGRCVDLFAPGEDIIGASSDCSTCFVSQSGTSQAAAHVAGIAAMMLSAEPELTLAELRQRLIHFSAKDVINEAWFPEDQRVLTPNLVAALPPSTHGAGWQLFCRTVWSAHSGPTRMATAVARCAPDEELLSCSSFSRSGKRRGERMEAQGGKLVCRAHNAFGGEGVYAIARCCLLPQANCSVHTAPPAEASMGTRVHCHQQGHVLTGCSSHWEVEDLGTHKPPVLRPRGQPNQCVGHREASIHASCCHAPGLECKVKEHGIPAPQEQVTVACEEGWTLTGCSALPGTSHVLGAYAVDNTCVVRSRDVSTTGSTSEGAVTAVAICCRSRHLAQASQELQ
Target sequence in this assay (Q8NBP7 31-152 partner limits assumed): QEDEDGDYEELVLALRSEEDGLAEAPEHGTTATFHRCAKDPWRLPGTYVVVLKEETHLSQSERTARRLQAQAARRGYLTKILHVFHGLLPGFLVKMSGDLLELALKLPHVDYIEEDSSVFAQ

Data set [2] has as its target T2, PCSK9-V5. As to the kind of experiment: Far Western blot with PCSK9-V5 conditioned media. The format is binding. On the set-up: made in house; host or cells: CHO-K1 cells (conditioned medium, not purified). Here is the method:
Lysates (20 to 30 μg protein), media or purified AnxA2-(His)6 were heated in reducing or non-reducing Laemmli sample buffer, resolved by SDS-PAGE on 8% glycine gels and electro-transferred onto nitrocellulose membranes (GE Healthcare). Following 1 h incubation in 5% skim milk in Tris-Buffered Saline-0.1% Tween (TBST), membranes where incubated with conditioned media of CHO-K1 cells overexpressing either an empty vector (pIRES-V5), PC5A-V5, CHRD-V5, pIRES-D374Y, PCSK9-V5 or its V5-tagged mutants, or incubated with purified AnxA2-(His)6 for 3 h at room temperature. […] For competition experiments, 10 μg of His-tagged PCSK9 or CHRD were added to the PCSK9-V5 media before Far Western blotting. For PCSK9 binding requirements with the ˜33 kDa protein, 1M NaCl, 10 mg/ml heparin, 1M NaCl+10 mg/ml heparin, or 100 mM EDTA were added to the PCSK9-V5 conditioned media used for Far Western blotting.
Wild type human Annexin A2 (AnxA2) (ATCC #MGC-2257) and Annexin A1 (AnxA1) (ATCC #MGC-5095) were purchased from ATCC and subcloned into NheI/SacI digested pIRES2-EGFP vector. An HA epitope ([…]) was fused by PCR mutagenesis at the C-terminus of both AnxA1 and AnxA2. Two-steps PCRs were performed on AnxA2 cDNA to introduce point mutations (N62Q; S64A; K28S+D34N+E36S; R37S+E43H+K47M; 77RRTKK (SEQ ID NO: 26)>AATAK (SEQ ID NO: 27); ^77RRTKK (SEQ ID NO: 26)>AATAA (SEQ ID NO: 28); ^77RRTKKELASALK (SEQ ID NO: 29)>^77AATAAELASALA (SEQ ID NO: 30); 80KKELA (SEQ ID NO: 31)>GKPLD (SEQ ID NO: 32)), or amino acid (aa) deletions (Δ2-24, aa 2-24; ΔR1, aa 37-108; ΔR2, aa 109-192; ΔR3, aa 193-268; ΔR4, aa 269-339; Δ25-36, aa 25-36; Δ37-48, aa 37-48; Δ49-61, aa 49-61; Δ62-75, aa 62-75; Δ37-66, aa 37-66; Δ74-88, aa 74-88; Δ82-88, aa 82-88; Δ89-101, aa 89-101; Δ102-108, aa 102-108) into pIRES2-AnxA2-EGFP vector (see Table 3 above). In addition, using PCR, the AnxA2 segment aa 49-75 was swapped with the corresponding AnxA1 segment aa 58-84 [AnxA1 (aa 58-84)>AnxA2 (aa 49-75)]. Similar swaps were performed for the corresponding AnxA2 sequence with AnxA1 (AnxA1>AnxA2: aa 25-27; aa 28-30; aa 31-33; aa 34-36; aa 37-39; aa 40-42; aa 43-45; aa 46-48; aa 49-75; aa 49-61; aa 62-75). All final cDNA constructs were verified by DNA sequencing.
Target sequence in this assay (Q8NBP7 153-692): as the sequence (Q8NBP7 153-692) above
Target sequence in this assay (Q8NBP7 31-152 partner limits assumed): as the sequence (Q8NBP7 31-152 partner limits assumed) above

For data set [3], the system named is PCSK9-induced LDLR degradation. As to the kind of experiment: LDLR Western blot of HepG2 cells incubated with PCSK9 conditioned media with or without purified AnxA2. Format: cell-based, human. Here is the method:
(§2) HepG2, HuH7, COS-1, BSC40 and HEK293 cell were grown in Dulbecco's modified Eagle's medium (DMEM) with 10% fetal bovine serum (FBS; Gibco), whereas CHO-K1 and CHO-K1 mutant Pgsd-677 cells that lack heparan sulfate proteoglycans^26 were grown in Ham's F12:DMEM (50:50) media with 10% FBS. Y1 mouse adrenal cells were grown in F12K medium with 15% horse serum and 2.5% FBS. All cells were maintained at 37° C. under 5% CO2. At 80-90% confluence, HuH7 and CHO-K1 cells were transiently transfected with Lipofectamine™ 2000 (Invitrogen), HEK293 cells were transfected with Effectene™ (Qiagen) and HepG2 cells were transfected with Fugene™ HD (Roche). […] For analysis of the various AnxA2 mutants in HEK293 cells, 24 h post-transfection, the cells were washed and then incubated for another 24 h in complete medium containing 50 μM of the proteasome inhibitor ALLN (Calbiochem). Stable transfectants of shRNA-AnxA2 were obtained in HuH7 cells following puromycin selection.
Western blotting experiments were made on samples that were reduced in Laemmli buffer, heated and resolved on 8% glycine SDS-PAGE gels. Separated proteins were then electro-transferred onto nitrocellulose, and probed with HRP-conjugated anti-V5 or anti-HA tags or with primary antibodies. […] Quantitation of band intensity was done with the ImageJ™ software version 1.37 (Wayne Rasband, National Institutes of Health, Bethesda, Md.). […]

A further data set deals with AnxA2. Put plainly: shRNA knockdown in HuH7 cells, AnxA2 Western blot. The format is cell-based, human. The following applies: HuH7, stable or transient transfection, vs control shRNA. Here is the method:
(§3) To silence human AnxA2, a 29mer pRS-shRNA was used: (sh3, […] (SEQ ID NO: 105)) (Origene). The control pRS-shGFP vector [shCtl] contained a non-effective 29mer shGFP cassette.
as §2, with “Stable transfectants of shRNA-AnxA2 were obtained in HuH7 cells following puromycin selection.” left out
(§4) Western blotting experiments were made on samples that were reduced in Laemmli buffer, heated and resolved on 8% glycine SDS-PAGE gels. […] Quantitation of band intensity was done with the ImageJ™ software version 1.37 (Wayne Rasband, National Institutes of Health, Bethesda, Md.).

For data set [4], the system named is LDLR. Put plainly: LDLR Western blot of transfected HEK293 cells. The format is cell-based, human. Particulars: HEK293 cells (negligible PCSK9), with or without p11. The procedure: as §2
(§5) Western blotting experiments were made on samples that were reduced in Laemmli buffer, heated and resolved on 8% glycine SDS-PAGE gels. Separated proteins were then electro-transferred onto nitrocellulose, and probed with HRP-conjugated anti-V5 or anti-HA tags or with primary antibodies. […] Quantitation of band intensity was done with the ImageJ™ software version 1.37 (Wayne Rasband, National Institutes of Health, Bethesda, Md.).

The subject of data set [5] is LDLR. Put plainly: shRNA knockdown in HuH7 cells, LDLR Western blot. The format is cell-based, human. Particulars: HuH7, stable or transient transfection, vs control shRNA. Here is the method: as §3
as §2, with “Stable transfectants of shRNA-AnxA2 were obtained in HuH7 cells following puromycin selection.” left out
as §4

The subject of data set [6] is PCSK9-enhanced LDLR degradation. Put plainly: LDLR Western blot of CHO-K1 cells co-transfected with PCSK9 and AnxA2. The format is cell-based. Particulars: PCSK9 alone reduced LDLR by ~30%. Here is the method:
as §2, §5

Data set [7] has as its system LDLR. As to the kind of experiment: Cell surface LDLR immunofluorescence of transfected HepG2 cells. The format is cell-based, human. The procedure: as §1
The subject of data set [8] is LDLR. Put plainly: LDLR Western blot of HepG2 cells transfected with AnxA2. Format: cell-based, human. Here is the method: as §2, §5
Data set [9] has as its target T2, PCSK9-V5. As to the kind of experiment: Co-immunoprecipitation in co-transfected CHO-K1 cells. The following applies: co-expression in CHO-K1 cells. Also on record: expressed in transfected cells; host or cells: CHO-K1 cells co-transfected with AnxA1-HA, AnxA2-HA or AnxA2-HA and p11. Format: binding. The procedure: For immunoprecipitation cell lysates were incubated overnight at 4° C. with anti-V5-agarose beads (Sigma) and washed 5 times with cold lysis buffer.
Target sequence in this assay (Q8NBP7 153-692): as the sequence (Q8NBP7 153-692) above

T1 sequence (Q8NBP7 153-692): as above
T1 sequence (Q8NBP7 31-152 partner limits assumed): as the sequence (Q8NBP7 31-152 partner limits assumed) above

For the molecule “AnxA2-(His)6: purified His-tagged Annexin A2 purchased from EMD biosciences”, the “cell surface localization of PCSK9” value in the data set with PCSK9 was “reduced”. In the data set with PCSK9-V5 [1], the “PCSK9-V5 bound in pull-down” value was “bound PCSK9 and its furin cleaved form (PCSK9-Δ218)”. Further, the “PCSK9 binding to purified protein by Far Western blot” value with PCSK9-V5 [2] (reducing and non-reducing conditions) is reported as “binds in a dose-dependant manner”. In data set [3] (HepG2, media of non-transfected cells, endogenous PCSK9), the “level of LDLR” value was “increased the level of LDLR”. Besides, in data set [3] (HepG2, ~20 h, PCSK9 conditioned media plus 5 ug/ml purified AnxA2-(His)6, ~30% without AnxA2), the “PCSK9-enhanced LDLR degradation” value was ~10%.

In the case of “AnxA2-shRNA: 29mer pRS-shRNA silencing human AnxA2, GCATCAGCACTGAAGTCAGCCTTATCTGG (SEQ ID NO: 105)”, in the data set on AnxA2, the “knockdown of AnxA2” value is 60-70%. Moreover, the “levels of endogenous LDLR” value in the data set with LDLR [4] was “None of these treatments affected the levels of endogenous LDLR”. For the same molecule, the “reduction of the LDLR levels” value in the data set on LDLR [5] is recorded as 40-70%.

In the case of “AnxA2: wild type human Annexin A2 isoform 2, expressed in cells by transfection”, the “levels of endogenous LDLR” value with LDLR [4] is reported as “None of these treatments affected the levels of endogenous LDLR”. The LDLR level result in data set [6] is listed as “returned to that of the control”. Moreover, the “labelling intensity of cell surface LDLR” value in the data set with LDLR [7] (HepG2, AnxA2 alone or together with p11, vs pIRES control) is reported as “strong increase”. The “LDLR-lowering effect of WT-PCSK9 or PCSK9-D374Y” value in the data set with LDLR [7] (HepG2, co-expression with AnxA2) was “prevented their LDLR-lowering effect”. The “increase of LDLR level” value was ~90% in the data set with LDLR [8] (HepG2, AnxA2 co-transfected with p11) and ~40% in the data set on LDLR [8] (HepG2 transfected with AnxA2 alone). Also, the “PCSK9-V5 binding by Far Western blot” value with PCSK9-V5 [2] (lysates of cells overexpressing the construct) was “specifically binds”.

B1: AnxA1: human Annexin A1, closely related family member used as control (protein, UniProt P04083 2-346, looked up)
Annexin A1: AMVSEFLKQAWFIENEEQEYVQTVKSSKGGPGSAVSPYPTFNPSSDVAALHKAIMVKGVDEATIIDILTKRNNAQRQQIKAAYLQETGKPLDETLKKALTGHLEEVVLALLKTPAQFDADELRAAMKGLGTDEDTLIEILASRTNKEIRDINRVYREELKRDLAKDITSDTSGDFRNALLSLAKGDRSEDFGVNEDLADSDARALYEAGERRKGTDVNVFNTILTTRSYPQLRRVFQKYTKYSKHDMNKVLDLELKGDIEKCLTAIVKCATSKPAFFAEKLHQAMKGVGTRHKALIRIMVSRSEIDMNDIKAFYQKMYGISLCQAILDETKGDYEKILVALCGGN
For the molecule B1, the “levels of endogenous LDLR” value in the data set on LDLR [4] was “None of these treatments affected the levels of endogenous LDLR”. Moreover, in the data set with PCSK9-V5 [9], the “co-immunoprecipitation with PCSK9-V5” value was “not”.
